Settings: in water

O=C(O)c1ccccc1C(=O)O
Settings | solubility (mole fraction)
283.65 K | 0.000284
296.15 K | 0.000709
298.15 K | 0.000761
302.65 K | 0.000935
307.15 K | 0.00107
309.15 K | 0.00119
311.15 K | 0.00126
315.15 K | 0.00151
317.15 K | 0.00164
318.15 K | 0.00164
319.15 K | 0.00181
320.15 K | 0.00205
323.15 K | 0.00223
327.15 K | 0.00248
334.15 K | 0.00323
338.15 K | 0.004

O=C(O)CCCC(=O)O
Settings | solubility (mole fraction)
279.15 K | 0.0734
281.15 K | 0.0784
284.15 K | 0.085
286.15 K | 0.101
289.15 K | 0.118
291.15 K | 0.129
293.15 K | 0.139
298.15 K | 0.16
302.15 K | 0.189
304.15 K | 0.2
307.15 K | 0.216
310.15 K | 0.236
312.15 K | 0.249
316.15 K | 0.281
317.15 K | 0.287
318.15 K | 0.289
320.55 K | 0.308
323.15 K | 0.327
327.65 K | 0.355
329.15 K | 0.398
332.15 K | 0.419
334.25 K | 0.424
336.15 K | 0.478
342.15 K | 0.537

O=C(O)c1ccco1
Settings | solubility (mole fraction)
279.15 K | 0.00411
280.15 K | 0.00414
283.65 K | 0.00431
284.15 K | 0.00462
285.15 K | 0.00471
289.15 K | 0.00483
294.15 K | 0.00633
298.15 K | 0.00796
301.15 K | 0.00886
302.15 K | 0.0099
307.15 K | 0.0125
309.15 K | 0.013
311.15 K | 0.0154
315.15 K | 0.0231
317.15 K | 0.0257
319.8 K | 0.031
323.15 K | 0.0513
325.15 K | 0.0664
327.15 K | 0.0722
327.65 K | 0.074
328.15 K | 0.0907
330.65 K | 0.128
333.2 K | 0.144
334.55 K | 0.144
336.15 K | 0.199
341.15 K | 0.262

O=C(O)c1ccccc1O
Settings | solubility (mole fraction)
283.15 K | 0.0002
298.15 K | 0.000333
307.15 K | 0.000441
317.15 K | 0.000572
318.15 K | 0.000677
320.15 K | 0.000672
323.15 K | 0.000742
324.15 K | 0.000785
325.15 K | 0.000847
327.15 K | 0.000934
328.15 K | 0.000964
330.65 K | 0.00111
334.65 K | 0.00131
339.15 K | 0.00149

O=C(O)CCCCCC(=O)O
Settings | solubility (mole fraction)
279.15 K | 0.00204
281.15 K | 0.00211
284.15 K | 0.00245
289.15 K | 0.00417
291.15 K | 0.00474
293.15 K | 0.00568
297.15 K | 0.00738
298.15 K | 0.00756
302.15 K | 0.00906
304.15 K | 0.00994
307.15 K | 0.0113
310.15 K | 0.0132
313.15 K | 0.0186
316.15 K | 0.0364
318.15 K | 0.0464
320.65 K | 0.0584
323.15 K | 0.0776
327.98 K | 0.14
333.15 K | 0.189
337.65 K | 0.261
342.15 K | 0.328

Source: BigSolDB 2.1
